We go through 98 compounds from ChEMBL document CHEMBL3507680, “University of Dundee, Gates Library screen for HepG2 cell viability”.

A short description of the data set: Human HepG2 cell viability assay in 384 well format. It counts as toxicity, cell-based. Conditions: HepG2 cells, read-out: Inhibition. Also on record: dose 125 nL, time 70.5 hour; cytotoxicity at 70.5 h: concentration not given beside the values.
For `CCS(=O)(=O)NCC(=O)NC1(C)CCc2ccccc2C1` (stereo not drawn), the cytotoxicity at 70.5 h is -5.54%.
Then `COCCN1CCN(c2ccc(C)nn2)Cc2cccnc21`, with -7.28%.
As for `CN1CC(C(=O)N2CCN(c3cccc(Cl)c3)C(=O)C2)NC1=O` (stereo not drawn), the cytotoxicity at 70.5 h was -7.63%.
Then `CCc1cccnc1NCc1cnc(N2CCOCC2)nc1`, with 20.6%; and `CCc1c(C)nn(CC(=O)NC(C)c2n[nH]c(C)n2)c1C` (stereo not drawn), with 16.1%.
Then `COCCN(C)CCN1CC2(CCN(C3CCCCC3)CC2)OC1=O`, with -4.75%.
Then `Cn1cc(CN2CCOC(CCNC(=O)c3ccsc3)C2)cn1` (stereo not drawn), with -0.896%; and `CC(C)N(C)C(=O)CSCc1ccc(S(=O)(=O)N(C)C)o1`, with -10.8%; and `CN(Cc1cccnc1)[C@@H]1CN(Cc2nccn2C)[C@@H]2CCCO[C@H]12`, with -4.78%.
With `COCCN(C)C(=O)c1nc2c(s1)CCCN2c1ccc(C)nn1`, the cytotoxicity at 70.5 h is -1.66%.
With `COCc1ccc(C(=O)NS(=O)(=O)c2ccc3c(c2)CCC(=O)N3)cc1`, the cytotoxicity at 70.5 h amounted to 17.1%.
Then `COC(=O)c1cc2n(n1)CCCN(C(=O)Cc1c[nH]c3ccccc13)C2`, with -13.9%; and `Cc1cc(N2CCCC3(CN(C)C(=O)O3)C2)c2cc3c(cc2n1)OCO3` (stereo not drawn), with 19.1%.
Then `Cc1cc(C(=O)N2CCC(CCn3cccn3)CC2)c(C)o1`, with -5.22%; and `CC(=O)NC(=O)C1(CCCc2ccncc2)CCN1` (stereo not drawn), with -2.25%.
As for `CCn1ccnc1CN1CCCC1c1noc(C2CC2)n1` (stereo not drawn), the cytotoxicity at 70.5 h is -2.39%.
Then `COCCCNC(=O)C1CN(C(=O)c2cnccn2)C1`, with -15.7%.
Regarding `CC(C)(C)C(Cn1cccn1)NC(=O)c1ccco1` (stereo not drawn), the cytotoxicity at 70.5 h was -2.47%.
Then `O=C(c1cnc(NCc2cccnc2)c(Cl)c1)N1CCCCC1`, with -12.2%.
Then `CN1CCc2onc(Cn3cccc3)c2C1`, with -0.902%; and `O=C(CCc1cc(O)no1)N1CCCC(COc2ccc(F)cc2)C1` (stereo not drawn), with -3.78%; and `N#Cc1ccc(OCCn2cccn2)cc1`, with -16.4%.
Regarding `CC(=O)N1CCCCC1c1nc(N)ncc1-c1ccccc1` (stereo not drawn), the cytotoxicity at 70.5 h is -24.9%.
Then `Nc1nccnc1C(=O)NC1CCCN(Cc2c(F)cccc2F)C1` (stereo not drawn), with -16.3%; and `CCN(CC)C(=O)CN(C)CCn1nc2ccccn2c1=O`, with -4.24%; and `CS(=O)(=O)NC1CCCN(C(=O)NCc2ccccc2Cl)C1` (stereo not drawn), with -2.53%.
Then `Cc1ncc(CN2CCC(CNS(=O)(=O)C3CC3)C2)cn1` (stereo not drawn), with 13.4%; and `O=C(CS(=O)(=O)Cc1ccccc1)NC1CCCCNC1=O` (stereo not drawn), with 12.6%; and `CC(C)c1ccc(CCC(=O)N2CCOCC2c2ncon2)cc1` (stereo not drawn), with -5.22%.
With `COC(C)(C)c1noc(C2(C#N)CCCC2)n1`, the cytotoxicity at 70.5 h was -1.33%.
Regarding `O=C(NCC1CC1)[C@H]1C[C@@H]2CCN(Cc3nccs3)C[C@@H]2O1`, the cytotoxicity at 70.5 h is -2.02%.
Then `Cn1nc(COc2cncnc2)c2c1CCN(Cc1ccccn1)C2`, with 6.46%; and `O=C(CN1CCCCCCC1=O)NCc1ccccn1`, with -1.3%; and `O=S(=O)(CCNCc1cc(O)c2cc(F)ccc2n1)N1CCCC1`, with 17.6%.
Then `CC(C)(C)c1n[nH]c(C2CN(C(=O)CCc3cccs3)CCO2)n1` (stereo not drawn), with -8.77%; and `CCc1ncc(C(=O)N2CC(N3CCCCC3)C2)cn1`, with 25.6%.
As to `CCN1CCN(c2ccc(C(=O)NCCOC)cc2F)CC1`, the cytotoxicity at 70.5 h was 25.2%.
Consider `Cc1oc(-c2ccsc2)nc1CC(=O)NCC(=O)Nc1cn[nH]c1`, for which the cytotoxicity at 70.5 h was -13%.
Consider `CC(C)n1ccnc1C1CCN(C(=O)c2ccccc2)CC1`, for which the cytotoxicity at 70.5 h worked out at 20.7%.
Regarding `O=S(=O)(c1ccccc1)N1C[C@@H]2COC[C@]2(COCC2CC2)C1`, the cytotoxicity at 70.5 h stood at 1.08%.
Then `Cc1noc(C)c1CN1CCN(C(=O)Cn2cncn2)CC1`, with -5.67%; and `O=C(NCC1CCCN1CCc1ccccc1)NCC1(O)CCC1` (stereo not drawn), with -9.32%.
Then `C[C@@H]1CN(C2Cc3ccccc3C2)CC[C@@]1(O)C1CCOCC1`, with -10.1%; and `CC(C)Cc1nc(CN(C)c2cc(C(C)C)nc3ccnn23)no1`, with -10.6%.
Then `COCCNc1ccc(CNC(=O)C2COc3ccccc32)cc1` (stereo not drawn), with 19.2%; and `CC(=O)NCC(=O)N(CCN1CCOCC1)Cc1ccco1`, with 3.23%; and `CC(C)c1nc(C(=O)N2C[C@H](C(C)C)[C@@H](N)C2)cs1`, with -0.955%.
`c1cnc(N2C[C@H]3CCN(Cc4ccncc4)C[C@H]3C2)nc1`: the cytotoxicity at 70.5 h was -7.09%.
For `NC(=O)Cn1cc(NC(=O)NCC2CCN(c3ccccc3)C2)cn1` (stereo not drawn), the cytotoxicity at 70.5 h was -8.01%.
Regarding `Cc1cc(C(=O)Nc2cccn(Cc3ccc(F)cc3)c2=O)on1`, the cytotoxicity at 70.5 h was -3.03%.
In the case of `CN(C)c1ccc(C(=O)N2CCCc3cc(OC(F)(F)F)ccc32)cn1`, the cytotoxicity at 70.5 h is -5.84%.
Then `Cc1cccc(C(=O)N2CC[C@H]3C[C@@H](C)O[C@@H]3C2)n1`, with -19.7%; and `Cc1nnc2n1CCN(C(=O)CN1C(=O)CSc3ccccc31)C2`, with -3.59%.
Then `O=C(NCC(O)(c1cccs1)C1CC1)NC1CCCCC1` (stereo not drawn), with 10.9%.
For the compound `COCCN1C[C@@H](C)[C@@]2(COCCN(C(=O)c3cccc(C)n3)C2)C1`, the cytotoxicity at 70.5 h was 0.709%.
Take `Cc1ccc(C2(CN3CCN(c4ncccn4)CC3)CCNCC2)nc1`: the cytotoxicity at 70.5 h is -1.1%.
Then `O=C(NCc1cccnc1)[C@@H]1CC[C@@H]2[C@@H](CCN2c2ncc(F)cn2)O1`, with -3.65%; and `CCOCCCNC(=O)c1nn(CC)cc1Cl`, with 21.2%.
Take `O=C([C@@H]1CCO[C@@H]2CCN(Cc3ccsc3)C[C@@H]21)N1CCCC1`: the cytotoxicity at 70.5 h is -16.1%.
Then `O=C(c1ccccc1Cl)N1CCN(CCc2ccccn2)CC1`, with -5.74%.
Then `CCS(=O)(=O)NCC1CCN(c2cnccn2)CC1`, with -6.43%; and `COCC(=O)N1CC(C(=O)NCC2CC2)C2(CCOCC2)C1` (stereo not drawn), with -3.19%.
Then `Cn1ncc2c(=O)[nH]c(CN3CCCc4cc(F)cc(F)c43)nc21`, with -15.9%.
As for `c1cnc(-c2nn3c(CN4CCOCC4)nnc3s2)cn1`, the cytotoxicity at 70.5 h is -10.2%.
Turning to `COC1COC2(CCN(Cc3cccc(Cl)c3)CC2)C1` (stereo not drawn), the cytotoxicity at 70.5 h is -9.84%.
Then `CCc1ncc(C(=O)N2CCN(c3nc(C)cc(OC)n3)CC2)s1`, with 15.8%; and `CCC(CNC(=O)Nc1cnn(CC)c1)N1CCCC1` (stereo not drawn), with -3.1%.
As to `Cc1nc(-c2ccc(S(=O)(=O)N3CCC=C(F)C3)cc2)co1`, the cytotoxicity at 70.5 h was -9.72%.
Turning to `CCn1ccnc1CN1CCOC(CNc2cccnn2)C1` (stereo not drawn), the cytotoxicity at 70.5 h was -9.35%.
`Cc1ccsc1CN(C)c1nc2c(cnn2C(C)(C)C)c(=O)[nH]1`: the cytotoxicity at 70.5 h was -4.96%.
Consider `CS(=O)(=O)NCCn1ccc(-c2cccs2)n1`, for which the cytotoxicity at 70.5 h is -6.85%.
Then `COc1ccc(CN2CCC3(CC2)CC(c2cccnc2)CO3)cc1` (stereo not drawn), with -6.67%.
Then `COc1ccc(CNc2cccnc2-n2cccn2)c(OC)c1OC`, with -11.5%.
Then `CC(C)Cc1noc(CN2CCN(CCOc3ccc(Cl)cc3)CC2)n1`, with -10.1%; and `O=C(NCCNc1ncccn1)c1ccc(OCc2ccccc2)nc1`, with -13.5%.
As for `CC1(c2ccccc2)CCC(=O)N(CCN2CCOCC2)C1` (stereo not drawn), the cytotoxicity at 70.5 h was -5.69%.
In the case of `CS(=O)(=O)CCn1ccc(NC(=O)c2c(F)cccc2F)n1`, the cytotoxicity at 70.5 h is -12.1%.
For `Cc1cc(C)n(-c2cncc(N3CCC(C(=O)N(C)C)CC3)n2)n1`, the cytotoxicity at 70.5 h was found to be 11.2%.
As for `CC(=O)NCC(=O)N1Cc2nccn2CC(CN2CCCC2=O)C1` (stereo not drawn), the cytotoxicity at 70.5 h is -7.77%.
On to `CC1c2ncc(COCC3CC3)n2CCN1C(=O)c1ccn(C)n1` (stereo not drawn), for which the cytotoxicity at 70.5 h is -9.47%.
Then `Cc1ccc2[nH]c(=O)cc(C(=O)NCCCn3nccc3C3CC3)c2c1`, with -16%; and `CC(C)N1CC[C@@H]2OC[C@H](C(=O)Nc3cccnc3)C[C@@H]2C1`, with 25.1%; and `Cc1noc(C)c1CN1Cc2cnn(C)c2C(COCC2CC2)C1` (stereo not drawn), with -10.8%.
Then `COCCN1C[C@@H]2CN(c3cc(OC)ncn3)CCC[C@]2(C(=O)O)C1`, with 9.96%.
Then `Cc1ccc(CN2C[C@H]3CN(Cc4ccccc4Cl)CCN3C2=O)cc1`, with -9.42%; and `Cc1ncsc1CN1CCN(C2CCOCC2)CC(C(N)=O)C1` (stereo not drawn), with 10.5%.
`CCN1CCN(C(=O)c2ccc3c(c2)NC(=O)CN3)[C@H]2CS(=O)(=O)C[C@H]21`: the cytotoxicity at 70.5 h was -8.61%.
Then `Cn1ncc2c(NCC3CCS(=O)(=O)C3)nc(C3CCCC3)nc21` (stereo not drawn), with -3.73%; and `Cc1ccsc1CN(C)c1cc(N2CCCC2CO)ncn1` (stereo not drawn), with -3.13%; and `Cc1nsc(C(=O)NCCc2ccccc2)n1`, with -8.39%.
Then `COCCS(=O)(=O)c1ncc(CN(C)C)n1Cc1ccccc1`, with 4.62%; and `CN(C)CC(=O)N1CCO[C@@H]2CC(COCc3ccncc3)C[C@H]21` (stereo partly drawn), with -8%; and `Cc1noc(CNC(=O)NCCOc2ccc(Cl)cc2)n1`, with -3.2%.
In the case of `CC(C)NC(=O)CCC(=O)N1CCC(c2noc3cc(F)ccc23)CC1`, the cytotoxicity at 70.5 h was -17.2%.
Turning to `CCN1CCN(C2CCN(CC(=O)NCC(F)(F)F)CC2)C1=O`, the cytotoxicity at 70.5 h is -6.43%.
Then `O=C(O)CCC(=O)Nc1nn(Cc2ccccc2Cl)cc1Cl`, with -5.22%.
As for `O=C(c1cc[nH]n1)N1CCCC1c1cc(Nc2ccccn2)n[nH]1` (stereo not drawn), the cytotoxicity at 70.5 h is -11.2%.
Then `COc1cccc(CN2CCc3nc(C(=O)NCC(C)C)sc3CC2)c1`, with 10.6%.
